The numbers were not newly measured in patent US20220313614A1, “EN[…] […] AND METHODS OF PREPARATION THEREOF” (Altria Client Services LLC, priority 2021, published 2022), which cites them from elsewhere.

For the series the following is noted: free base (non-protonated).

In the case of `CN1CCCC1c1cccnc1` (stereo not shown) [Free-base nicotine, 3-(1-methyl-2-pyrrolidinyl) pyridine], the pKa value result is listed as “about 8”.
